Patent publication EP0284492A1, “Peptidic fractions inducing protective antibodies against the bovine leukemia virus, process for obtaining such fractions, their coding sequences and vaccines produced by these fractions” (RHONE MERIEUX, priority 1987, dated 1988)
Ends that are not written are not given here.

Assays:
[1] = system: pseudotypes VSV (BLV); type: cell-based, virus BLV
[2] = system: sérums d'animaux infectés par le virus BLV; type: binding, bovin, ovin

Sequence: EPRCPYVGADHFDCP (cysteine pairing not given here) [peptide 78-92, séquence 78-92 de la gp51]
- capacité à inhiber les pseudotypes [1]: remarquable capacité à inhiber les pseudotypes
- induction d'anticorps neutralisants [1]: induire des anticorps neutralisants
- reconnaissance de l'oligopeptide par les sérums [2]: reconnu à la fois par le sérum bovin (sérum n° 15) et le sérum ovin (sérum n° 65)
